Source: patent US20160108049A1 (TAKEDA Gmbh, priority 2011, published 2016)

Columns and labels:
PDE4B1 = target: T1, PDE4B1 (Homo sapiens, UniProt Q07343); test: Inhibition of PDE4 activity (PDE4B1, SPA assay); assay type: biochemical; conditions: recombinant PDE4B1, 0.5 μM cAMP; read-out: PDE4B1 Inhibitory values measured as -logIC50 (converted)
T1 construct: made in house; host or cells: SF21 insect cells (baculovirus; virus made in SF9 cells, pCR-Bac vector)
In short: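 Baculovirus-expressed enzyme from SF21 cell 1000×g supernatant; substrate 0.5 μM [3H]cAMP in 20 mM Tris pH 7.4, 5 mM Mg2+, 0.1 mg/ml BSA, 10-20% conversion. 5 min preincubation at 37 °C, 15 min reaction, stopped by SPA beads with IBMX; IC50 by non-linear regression.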

human PDE5 = target: T2, human PDE5 (Homo sapiens, UniProt O76074); test: Inhibition of PDE5 activity (platelet lysate, SPA assay); assay type: biochemical; conditions: 0.5 μM cGMP, read-out: PDE5 Inhibitory values measured as -logIC50 (converted)
T2 construct: from tissue; host or cells: human platelets from fresh donor blood (platelet lysate)
In short: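 Human platelet lysate (10,000 g supernatant) served as PDE5 source, with 1 μM motapizone and 10 nM PDE2 inhibitor added, in Tris pH 7.4, 5 mM Mg2+, BSA. Substrate 0.5 μM [3H]cGMP, 10–20% conversion; 5 min preincubation then 15 min at 37 °C, stopped by SPA beads with IBMX. IC50 by non-linear regression.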

T1 sequence (Q07343 whole entry): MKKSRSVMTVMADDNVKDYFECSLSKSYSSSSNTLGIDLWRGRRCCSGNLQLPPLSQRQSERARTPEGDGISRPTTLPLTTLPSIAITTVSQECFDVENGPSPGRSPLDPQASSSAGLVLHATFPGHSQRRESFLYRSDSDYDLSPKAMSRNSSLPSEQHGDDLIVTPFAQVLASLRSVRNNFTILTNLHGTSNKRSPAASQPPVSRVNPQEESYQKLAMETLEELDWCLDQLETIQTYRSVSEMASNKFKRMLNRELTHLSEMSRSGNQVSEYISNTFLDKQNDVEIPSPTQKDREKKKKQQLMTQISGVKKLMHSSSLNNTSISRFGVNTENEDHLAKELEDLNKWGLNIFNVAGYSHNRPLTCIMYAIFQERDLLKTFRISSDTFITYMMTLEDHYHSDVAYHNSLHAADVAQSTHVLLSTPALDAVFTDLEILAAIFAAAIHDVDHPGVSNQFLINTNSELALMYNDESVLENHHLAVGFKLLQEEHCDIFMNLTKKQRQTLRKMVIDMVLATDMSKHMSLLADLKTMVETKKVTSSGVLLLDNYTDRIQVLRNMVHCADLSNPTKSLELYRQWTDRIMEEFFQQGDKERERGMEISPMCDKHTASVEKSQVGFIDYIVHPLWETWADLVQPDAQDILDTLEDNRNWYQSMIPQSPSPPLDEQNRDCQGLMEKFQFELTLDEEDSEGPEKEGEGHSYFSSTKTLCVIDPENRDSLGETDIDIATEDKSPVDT

| Structure (SMILES) | IC50 (PDE4B1) | IC50 (human PDE5) |
| --- | --- | --- |
| CCC1(CC)CC(c2ccc(OC)c(OC)c2)=NN(C2CCN(C(=O)[C@@H](Cc3ccccc3)NC(=O)c3c[nH]c4c(-c5c(OCC6CC6)ccc6c5OCO6)ncnc34)CC2)C1=O [Example 116, 4-[5-(cyclopropylmethoxy)-1,3-benzodioxol-4-yl]-N-[(2R)-1-{4-[3-(3,4-dimethoxyphenyl)-5,5-diethyl-6-oxo-5,6-dihydropyridazin-1(4H)-yl]piperidin-1-yl}-1-oxo-3-phenylpropan-2-yl]-5H-pyrrolo[3,2-d]pyrimidine-7-carboxamide] | 1 to 10 nM | 1 to 10 nM |
| COc1cc(OCC2CC2)c(-c2ncnc3c(C(=O)N[C@H](Cc4ccccc4)C(=O)N4CCC(N5N=C(c6ccc(OC)c(OC)c6)CC(C)(C)C5=O)CC4)c(C)[nH]c23)cc1F [Example 69, 4-[2-(cyclopropylmethoxy)-5-fluoro-4-methoxyphenyl]-N-[(2R)-1-{4-[3-(3,4-dimethoxyphenyl)-5,5-dimethyl-6-oxo-5,6-dihydropyridazin-1(4H)-yl]piperidin-1-yl}-1-oxo-3-phenylpropan-2-yl]-6-methyl-5H-pyrrolo[3,2-d]pyrimidine-7-carboxamide] | 1 to 10 nM | 1 to 10 nM |
| COc1ccc(C2=NN(C3CCN(C(=O)[C@H](Cc4cccnc4)NC(=O)c4c[nH]c5c(-c6c(OCC7CC7)ccc7c6OCO7)ncnc45)CC3)C(=O)C(C)(C)C2)c2c1OC(C)(C)C2 [Example 114, 4-[5-(cyclopropylmethoxy)-1,3-benzodioxol-4-yl]-N-[(2S)-1-{4-[3-(7-methoxy-2,2-dimethyl-2,3-dihydro-1-benzofuran-4-yl)-5,5-dimethyl-6-oxo-5,6-dihydropyridazin-1(4H)-yl]piperidin-1-yl}-1-oxo-3-(pyridin-3-yl)propan-2-yl]-5H-pyrrolo[3,2-d]pyrimidine-7-carboxamide] | 1 to 10 nM | < 1 nM |
| COc1ccc(C2=NN(C3CCN(C(=O)[C@@H](Cc4ccccc4Cl)NC(=O)c4c(C)[nH]c5c(-c6c(OCC7CC7)ccc7c6OCO7)ncnc45)CC3)C(=O)[C@@H]3CCCC[C@H]23)cc1OC [Example 34, N-[(2R)-3-(2-chlorophenyl)-1-{4-[(4aS,8aR)-4-(3,4-dimethoxyphenyl)-1-oxo-4a,5,6,7,8,8a-hexahydrophthalazin-2(1H)-yl]piperidin-1-yl}-1-oxopropan-2-yl]-4-[5-(cyclopropylmethoxy)-1,3-benzodioxol-4-yl]-6-methyl-5H-pyrrolo[3,2-d]pyrimidine-7-carboxamide] | < 1 nM | < 1 nM |
| COc1cc(-c2ncnc3c(C(=O)N[C@H](Cc4ccccc4)C(=O)N4CCC(N5N=C(c6ccc(OC)c(OC)c6)[C@H]6CCCC[C@H]6C5=O)CC4)c[nH]c23)c(OCC2CC2)cc1F [Example 24, 4-[2-(cyclopropylmethoxy)-4-fluoro-5-methoxyphenyl]-N-[(2R)-1-{4-[(4aS,8aR)-4-(3,4-dimethoxyphenyl)-1-oxo-4a,5,6,7,8,8a-hexahydrophthalazin-2(1H)-yl]piperidin-1-yl}-1-oxo-3-phenylpropan-2-yl]-5H-pyrrolo[3,2-d]pyrimidine-7-carboxamide] | 1 to 10 nM | 1 to 10 nM |
| COc1ccc(C2=NN(C3CCN(C(=O)[C@@H](Cc4ccc(F)c(F)c4)NC(=O)c4c(C)[nH]c5c(-c6c(OCC7CC7)ccc7c6OCO7)ncnc45)CC3)C(=O)[C@@H]3CCCC[C@H]23)cc1OC [Example 18, 4-[5-(cyclopropylmethoxy)-1,3-benzodioxol-4-yl]-N-[(2R)-3-(3,4-difluorophenyl)-1-{4-[(4aS,8aR)-4-(3,4-dimethoxyphenyl)-1-oxo-4a,5,6,7,8,8a-hexahydrophthalazin-2(1H)-yl]piperidin-1-yl}-1-oxopropan-2-yl]-6-methyl-5H-pyrrolo[3,2-d]pyrimidine-7-carboxamide] | < 1 nM | 1 to 10 nM |

Further lines, results first:

| IC50 (PDE4B1) | IC50 (human PDE5) | Structure (SMILES) |
| --- | --- | --- |
| < 1 nM | < 1 nM | COc1ccc(C2=NN(C3CCN(C(=O)[C@@H](Cc4cccc(C)c4)NC(=O)c4c(C)[nH]c5c(-c6c(OCC7CC7)ccc7c6OCO7)ncnc45)CC3)C(=O)[C@@H]3CCCC[C@H]23)cc1OC [Example 17, 4-[5-(cyclopropylmethoxy)-1,3-benzodioxol-4-yl]-N-[(2R)-1-{4-[(4aS,8aR)-4-(3,4-dimethoxyphenyl)-1-oxo-4a,5,6,7,8,8a-hexahydrophthalazin-2(1H)-yl]piperidin-1-yl}-3-(3-methylphenyl)-1-oxopropan-2-yl]-6-methyl-5H-pyrrolo[3,2-d]pyrimidine-7-carboxamide] |
| 1 to 10 nM | 1 to 10 nM | COc1ccc(C2=NN(C3CCN(C(=O)[C@@H](Cc4cccc(Cl)c4)NC(=O)c4c[nH]c5c(-c6c(OCC7CC7)ccc7c6OCO7)ncnc45)CC3)C(=O)[C@@H]3CCCC[C@H]23)cc1OC [Example 30, N-[(2R)-3-(3-chlorophenyl)-1-{4-[(4aS,8aR)-4-(3,4-dimethoxyphenyl)-1-oxo-4a,5,6,7,8,8a-hexahydrophthalazin-2(1H)-yl]piperidin-1-yl}-1-oxopropan-2-yl]-4-[5-(cyclopropylmethoxy)-1,3-benzodioxol-4-yl]-5H-pyrrolo[3,2-d]pyrimidine-7-carboxamide] |
| < 1 nM | < 1 nM | COc1ccc(C2=NN(C3CCN(C(=O)[C@@H](NC(=O)c4c[nH]c5c(-c6c(OCC7CC7)ccc7c6OCO7)ncnc45)[C@@H](C)O)CC3)C(=O)[C@@H]3CCCC[C@H]23)cc1OC [Example 63, 4-[5-(cyclopropylmethoxy)-1,3-benzodioxol-4-yl]-N-[(2S,3R)-1-{4-[(4aS,8aR)-4-(3,4-dimethoxyphenyl)-1-oxo-4a,5,6,7,8,8a-hexahydrophthalazin-2(1H)-yl]piperidin-1-yl}-3-hydroxy-1-oxobutan-2-yl]-5H-pyrrolo[3,2-d]pyrimidine-7-carboxamide] |
| < 1 nM | < 1 nM | COc1ccc(C2=NN(C3CCN(C(=O)C(Cc4c[nH]c5ccccc45)NC(=O)c4c[nH]c5c(-c6c(OCC7CC7)ccc7c6OCO7)ncnc45)CC3)C(=O)C3CCCCC23)cc1OC [Example 92, 4-[5-(cyclopropylmethoxy)-1,3-benzodioxol-4-yl]-N-[(2S)-1-{4-[(4aS,8aR)-4-(3,4-dimethoxyphenyl)-1-oxo-4^a,5,6,7,8,8^a-hexahydrophthalazin-2(1H)-yl]piperidin-1-yl}-3-(1H-indol-3-yl)-1-oxopropan-2-yl]-5H-pyrrolo[3,2-d]pyrimidine-7-carboxamide] |
| < 1 nM | < 1 nM | COc1ccc(C2=NN(C3CCN(C(=O)[C@H](Cc4ccccn4)NC(=O)c4c[nH]c5c(-c6c(OCC7CC7)ccc7c6OCO7)ncnc45)CC3)C(=O)[C@@H]3CCCC[C@H]23)cc1OC [Example 39, 4-[5-(cyclopropylmethoxy)-1,3-benzodioxol-4-yl]-N-[(2S)-1-{4-[(4aS,8aR)-4-(3,4-dimethoxyphenyl)-1-oxo-4a,5,6,7,8,8a-hexahydrophthalazin-2(1H)-yl]piperidin-1-yl}-1-oxo-3-(pyridin-2-yl)propan-2-yl]-5H-pyrrolo[3,2-d]pyrimidine-7-carboxamide] |
| < 1 nM | < 1 nM | COc1ccc(C2=NN(C3CCN(C(=O)[C@H](Cc4cccnc4)NC(=O)c4c(C)[nH]c5c(-c6c(OCC7CC7)ccc7c6OCO7)ncnc45)CC3)C(=O)[C@@H]3CCCC[C@H]23)cc1OC [Example 42, 4-[5-(cyclopropylmethoxy)-1,3-benzodioxol-4-yl]-N-[(2S)-1-{4-[(4aS,8aR)-4-(3,4-dimethoxyphenyl)-1-oxo-4a,5,6,7,8,8a-hexahydrophthalazin-2(1H)-yl]piperidin-1-yl}-1-oxo-3-(pyridin-3-yl)propan-2-yl]-6-methyl-5H-pyrrolo[3,2-d]pyrimidine-7-carboxamide] |
| 1 to 10 nM | < 1 nM | COc1ccc(C2=NN(C3CCN(C(=O)[C@H](Cc4ccncc4)NC(=O)c4c(C)[nH]c5c(-c6c(OCC7CC7)ccc7c6OCO7)ncnc45)CC3)C(=O)[C@@H]3CCCC[C@H]23)cc1OC [Example 40, 4-[5-(cyclopropylmethoxy)-1,3-benzodioxol-4-yl]-N-[(2S)-1-{4-[(4aS,8aR)-4-(3,4-dimethoxyphenyl)-1-oxo-4a,5,6,7,8,8a-hexahydrophthalazin-2(1H)-yl]piperidin-1-yl}-1-oxo-3-(pyridin-4-yl)propan-2-yl]-6-methyl-5H-pyrrolo[3,2-d]pyrimidine-7-carboxamide] |
| 1 to 10 nM | < 1 nM | COc1ccc(C2=NN(C3CCN(C(=O)[C@@H](Cc4ccc(C(N)=O)cc4)NC(=O)c4c[nH]c5c(-c6c(OCC7CC7)ccc7c6OCO7)ncnc45)CC3)C(=O)[C@@H]3CCCC[C@H]23)cc1OC [Example 7, N-[(2R)-3-(4-carbamoylphenyl)-1-{4-[(4aS,8aR)-4-(3,4-dimethoxyphenyl)-1-oxo-4a,5,6,7,8,8a-hexahydrophthalazin-2(1H)-yl]piperidin-1-yl}-1-oxopropan-2-yl]-4-[5-(cyclopropylmethoxy)-1,3-benzodioxol-4-yl]-5H-pyrrolo[3,2-d]pyrimidine-7-carboxamide] |
| < 1 nM | < 1 nM | COc1ccc(C2=NN(C3CCN(C(=O)[C@H](NC(=O)c4c[nH]c5c(-c6c(OCC7CC7)ccc7c6OCO7)ncnc45)C(C)C)CC3)C(=O)[C@@H]3CCCC[C@H]23)cc1OC [Example 119, 4-[5-(cyclopropylmethoxy)-1,3-benzodioxol-4-yl]-N-[(2R)-1-{4-[(4aS,8aR)-4-(3,4-dimethoxyphenyl)-1-oxo-4a,5,6,7,8,8a-hexahydrophthalazin-2(1H)-yl]piperidin-1-yl}-3-methyl-1-oxobutan-2-yl]-5H-pyrrolo[3,2-d]pyrimidine-7-carboxamide] |
